Reference: US4857524A, “Thiazolidine compounds and therapeutic method” (Kissei Pharmaceutical Co., Ltd., priority 1987, dated 1989)
Square brackets hold non-standard residues; d marks the D form. Peptide text beside a SMILES is read from it. * marks the point of attachment. Thz = O=C(O)[C@@H]1CSCN1; Cbz = O=C(OCc1ccccc1)*

Molecular target: T1, prolyl endopeptidase (Bos taurus, UniProt Q9XTA2)
T1 construct: the enzyme purified from bovine brain; from tissue; host or cells: bovine brain
T1 sequence (Q9XTA2 1-710): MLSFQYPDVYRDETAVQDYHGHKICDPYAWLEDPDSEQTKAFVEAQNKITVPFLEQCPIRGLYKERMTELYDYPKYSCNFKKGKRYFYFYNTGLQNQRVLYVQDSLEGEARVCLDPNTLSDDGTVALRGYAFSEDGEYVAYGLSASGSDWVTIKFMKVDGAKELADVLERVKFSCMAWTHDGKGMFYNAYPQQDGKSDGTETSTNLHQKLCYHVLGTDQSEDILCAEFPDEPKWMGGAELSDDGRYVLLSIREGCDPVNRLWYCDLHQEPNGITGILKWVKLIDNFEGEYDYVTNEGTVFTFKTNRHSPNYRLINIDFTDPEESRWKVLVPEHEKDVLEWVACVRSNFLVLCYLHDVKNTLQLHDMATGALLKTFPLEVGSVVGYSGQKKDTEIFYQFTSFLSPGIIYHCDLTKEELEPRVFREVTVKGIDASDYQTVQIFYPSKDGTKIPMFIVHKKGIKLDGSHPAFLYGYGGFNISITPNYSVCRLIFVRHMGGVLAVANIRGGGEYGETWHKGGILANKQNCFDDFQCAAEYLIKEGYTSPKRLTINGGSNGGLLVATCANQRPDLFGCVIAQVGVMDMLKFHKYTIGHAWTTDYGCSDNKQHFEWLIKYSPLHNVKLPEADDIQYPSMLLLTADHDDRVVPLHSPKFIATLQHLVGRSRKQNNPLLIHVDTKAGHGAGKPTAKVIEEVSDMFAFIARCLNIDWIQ
Test: Inhibitory Effect for Prolyl Endopeptidase (enzyme purified from bovine brain)
Type: biochemical
Method: To 0.5 ml of the supernatant was added 0.5 ml of 0.1% sodium nitrite aqueous solution, and after 3 minutes, 0.5 ml of 0.5% ammonium sulfamate and 1 ml of 0.05% N-(1-naphthyl)ethylenediamine dihydrochloride in ethanol were further added . The mixture was left for 25 minutes at 37° C., and the absorbance was measured at 570 nm.
The unit of the enzyme activity (μmol/min/ml)=ΔOD×0.42×a dilution factor

SMILES | IC50 [nM]
O=C([C@@H]1CSCN1C(=O)C=Cc1ccccc1)N1CCSC1 [Compound P, 3-[(R)-(-)-3-Cinnamoylthiazolidine-4-carbonyl]thiazolidine] | 3240
O=C([C@@H]1CSCN1C(=O)OCc1ccccc1)N1CCSC1 [Compound A, 3-[(R)-(-)-3-Benzyloxycarbonylthiazolidine-4-carbonyl]thiazolidine] | 0.26
O=C([C@@H]1CSCN1C(=O)Cc1ccccc1)N1CCCC1 [Compound O, 1-[(R)-(-)-3-Phenylacetylthiazolidine-4-carbonyl]pyrrolidine] | 660
O=C([C@@H]1CSCN1C(=O)c1ccncc1)N1CCSC1 [Compound U, 3-[(R)-(-)-3-Isonicotinoylthiazoidine-4-carbonyl]thiazolidine] | 1300
O=C([C@@H]1CSCN1C(=O)OCc1ccccc1)N1CCSCC1 [Compound F, N-[(R)-(-)-3-Benzyloxycarbonylthiazolidine-4-carbonyl]thiomorpholine] | 230000
O=C([C@@H]1CSCN1C(=O)CCc1ccccc1)N1CCSC1 [Compound H, 33-[(R)-(-)-3-(3-Phenylpropionyl)thiazolidine-4-carbonyl]thiazolidine] | 400
O=C([C@@H]1CSCN1C(=O)C=Cc1ccccc1)N1CCCC1 [Compound Q, 1-[(R)-(-)-3-Cinnamoylthiazolidine-4-carbonyl]pyrrolidine] | 4600
COC(=O)[C@@H]1CCCN1C(=O)[C@@H]1CSCN1C(=O)OCc1ccccc1 [Compound B, (S)-(-)-N-[(R)-(-)-3-Benzyloxycarbonylthiazolidine-4-carbonyl]pyrrolidine-2-carboxylic acid methyl ester] (Cbz-[Thz]-Pro-OMe) | 72000
O=C([C@@H]1CSCN1C(=O)Cc1ccccc1)N1CCSC1 [Compound N, 3-[(R)-(-)-3-Phenylacetylthiazolidine-4-carbonyl]thiazolidine] | 63.1
COC(=O)[C@@H]1CSCN1C(=O)[C@@H]1CSCN1C(=O)OCc1ccccc1 [Compound G, (R)-(-)-3-[(R)-(-)-3-Benzyloxycarbonylthiazolidine-4-carbonyl]thiazolidine-4-carboxylic acid methyl ester] (Cbz-[Thz]-[Thz]-OMe) | 210
